Consider eleven molecules from patent US6500431B1, “Inhibitors of angiogenesis and tumor growth” (University of Southern California, priority 1998, dated 2002).

What all share (assay type): cell-based
One assay deals with endothelial cells. Nature of the assay: Endothelial cell migration assay, fibronectin-coated transwell. As to conditions: chemotaxis induced by VEGF or bFGF. As to the method:
(§1) The assays were done in double chamber wells separated by […] membrane. Chemotaxis was induced by bFGF (25 ng/mL) in the lower chamber. Endothelial cells or KS cells (5×10^4/mL) were placed in the upper chamber in the presence and absence of test polypeptides. Taxol at 10 ng/mL was used as a known inhibitor of migration. Cell migration across the membrane was quantitated after an overnight incubation.
Angiogenesis is mediated by complex biochemical processes including degradation of the basement membrane under existing blood vessel endothelial cells, followed by proliferation and migration of endothelial cells, followed by formation of capillary loops, and recruitment of vascular smooth muscle cells to encase the newly formed vessels and provide stability. […]
Briefly, wells were coated with fibronectin (25 μg/mL) overnight, and endothelial cells or KS cells were plated in the upper chamber with 100 μL of DMEM/0.4% FCS. […] The plates were incubated for 5 hr at 37° C. and the cells crossing the fibronectin-coated membrane were counted after wiping the cells off the membrane in the upper chamber with a cotton swab.
The cells that traversed the membrane were fixed with Diff-Quik stain according to the manufacturer's instruction (Dade Diagnostics Inc., Aguada, PR). The cells were counted under a microscope at 320× in four randomly selected fields. […]

Assay [1] concerns KS Y-1 cells. Nature of the assay: KS Y-1 cell proliferation assay (MTT). As to conditions: for KS Cell Proliferation, % of Control: 7,500 KS Y-1 cells/well; for KS Cell Proliferation, % of Control / Cell Proliferation Activity (% of control), KSY-1: 5 days, MTT; for Cell Proliferation Activity (% of control), KSY-1: concentration not printed. The method, then: (§2) To determine if Saposin B polypeptides had anti-angiogenic activity, a series of overlapping polypeptides were synthesized and tested in the KS Y-1 cell proliferation assay. The overlapping polypeptides are SEQ ID NOS:13 though 42. Cell Proliferation assays in either KS cells or fibroblast. Cells were plated in 48 well plates at equal numbers in appropriate culture medium. Cells were treated with the test compounds at various concentrations on day one, and on day 3. MTT was done on day 5. KS cells were used to represent the activated endothelial cells, while fibroblast cells represent the control cells. The results are remarkable for the lack of toxicity to the fibroblast relative to the activated endothelial cells/KS cells.

The next assay relates to T1 cells. The assay can be described thus: Fibroblast proliferation assay (MTT). The settings on record: for Fibroblast Proliferation, % of Control: 5000 T1 cells/well, 7 days; for Cell Proliferation Activity (% of control), T1: concentration not given, 5 days. As to the method: as §2, with “MTT was done on day 5.” left out
Assay [2] has as its system endothelial cells (HUVEC). The assay can be described thus: Growth inhibition of endothelial cells. The settings on record: for activity against endothelial cells: Saposin C: highest concentration tested 50 μg/mL. As to the method: FIG. 1D: Activity of n-terminus decapeptide (DVCQDCIQMV; SEQ ID NO 21).
FIG. 1E: Activity of N-terminus pentapeptide (DVCQC; SEQ ID NO: 28).
(§3) By SDS-PAGE, the bacterial product was smaller than the eukaryotic protein. Because prokaryotically expressed proteins are not glycosylated, the difference in molecular weights probably represents the presence of carbohydrate in the eukaryotic protein. Recombinant proteins were then tested in KS, endothelial and control cell lines. Activity was found only in KS cell lines and endothelial cells.

Assay [3] concerns KS Y-1 cells. The assay can be described thus: KS cell migration assay, fibronectin-coated transwell. The settings on record: 50,000 KS Y-1 cells/well, 25 ng/mL bFGF, overnight. As to the method:
as §1
Angiogenesis is mediated by complex biochemical processes including degradation of the basement membrane under existing blood vessel endothelial cells, followed by proliferation and migration of endothelial cells, followed by formation of capillary loops, and recruitment of vascular smooth muscle cells to encase the newly formed vessels and provide stability. KS and endothelial cell migration in the presence of Saposin B was studied in transwell culture plates with 8 μm pore membranes (Costar, Cambridge, Mass.).
Briefly, wells were coated with fibronectin (25 μg/mL) overnight, and endothelial cells or KS cells were plated in the upper chamber with 100 μL of DMEM/0.4% FCS. 500 μL of DMEM/0.4% FCS was added to the lower chamber and incubated at 37° C. for one hour. The test polypeptides, at various concentrations, were added to the upper chamber, and chemotactic agents (VEGF or bFGF at 20 ng/mL) were added to the lower cell-culture chambers. The plates were incubated for 5 hr at 37° C. and the cells crossing the fibronectin-coated membrane were counted after wiping the cells off the membrane in the upper chamber with a cotton swab.
The cells that traversed the membrane were fixed with Diff-Quik stain according to the manufacturer's instruction (Dade Diagnostics Inc., Aguada, PR). The cells were counted under a microscope at 320× in four randomly selected fields. The experiments were done in duplicate and repeated at least three times.

Another assay deals with KS cell lines. Nature of the assay: Activity of recombinant Prosaposin chains on growth of KS cell lines. The settings on record: Saposin C: highest concentration tested 50 μg/mL.
Excerpt: In order to determine whether recombinant Saposin B has anti-angiogenic activity, the coding region of each of the Prosaposin chains was amplified from fibroblast cell lines and cloned into both bacterial (pGEX-KG) and eukaryotic (pcDNA 3.1His A) expression vectors.
The PCR products were digested with the respective restriction enzymes and the restriction products were inserted into the pGEX-KG vector for bacterial expression. pGEX-KG vector comprises a glutathione S transferase (GST)-tag at the […] of the insertion site so that a GST-fusion protein is expressed. The GST-tag is used to aid in purification of the recombinant protein. After elution from a glutathione-Sepharose 4B column, the GST-tagged proteins were incubated with thrombin (4 μg/ml) for 4 hr at room temperature (22-25° C.) in 50 mM Tris, pH 8.3, 3 mM CaCl2, 150 mM NaCl to cleave GST from the fusion protein. Free GST was removed from the preparation by passing the digested fusion protein through the glutathione-Sepharose 4B column.
as §3

Setting [4] is: first of two KSY-1 value columns.
The mark [5] stands for this setting: second of two KSY-1 value columns.

No end group written: not given here.

Turning to `CC(=O)O[C@H]1C(=O)[C@@]2(C)[C@H]([C@H](OC(=O)c3ccccc3)[C@]3(O)C[C@H](OC(=O)[C@H](O)[C@@H](NC(=O)c4ccccc4)c4ccccc4)C(C)=C1C3(C)C)[C@]1(OC(C)=O)CO[C@@H]1C[C@@H]2O` [paclitaxel, reference compound], the “inhibition of endothelial cell migration” value in the assay on endothelial cells was “did not completely inhibit”.

Turning to DVCQDCIQMV [SEQ ID NO:21], the “KS Cell Proliferation, % of Control” value with KS Y-1 cells [1] (1 μg/mL) was 88.7 % of Control; with KS Y-1 cells [1] (5 μg/mL), 68.7 % of Control; in the assay on KS Y-1 cells [1] (10 μg/ml) it was 26.1 % of Control; in the assay on KS Y-1 cells [1] (50 μg/mL), 7.0 % of Control. Further, in the assay with KS Y-1 cells [1] (setting [4]), the “Cell Proliferation Activity (% of control), KSY-1” value is given as 29 % of control. Further, the “Fibroblast Proliferation, % of Control” value with T1 cells (1 μg/mL) was 100.0 % of Control; in the assay with T1 cells (10 μg/mL), 91.3 % of Control; in the assay with T1 cells (50 μg/mL) it was 87.0 % of Control. Besides, in assay [2] (FIG. 1, 1D, 1E), the “growth inhibition of endothelial cells” value is reported as “Only endothelial cells show dose dependent growth inhibition”.

For the molecule GDVSQDSIQMV [SEQ ID NO:20], the “KS Cell Proliferation, % of Control” value in the assay with KS Y-1 cells [1] (1 μg/mL) is given as 100.0 % of Control; with KS Y-1 cells [1] (5 μg/mL), 96.4 % of Control; in the assay on KS Y-1 cells [1] (10 μg/ml) it was 92.9 % of Control; with KS Y-1 cells [1] (50 μg/mL), 82.1 % of Control. Further, the “Cell Proliferation Activity (% of control), KSY-1” value in the assay with KS Y-1 cells [1] (setting [4]) is 93 % of control; in the assay on KS Y-1 cells [1] (setting [5]) it was 84 % of control. Further, the “Fibroblast Proliferation, % of Control” value in the assay on T1 cells (1 μg/mL) is 91.3 % of Control; in the assay on T1 cells (10 μg/mL) it was 95.7 % of Control; in the assay on T1 cells (50 μg/mL) it was 95.7 % of Control.

Take DVCQDCI [SEQ ID NO:26]: the results for the “Cell Proliferation Activity (% of control), KSY-1” value in the assay on KS Y-1 cells [1] (setting [4]) and in the assay on KS Y-1 cells [1] (setting [5]) were 72 % of control and 40 % of control, respectively. Besides, the “Cell Proliferation Activity (% of control), T1” value with T1 cells is reported as 81 % of control; with T1 cells (first of two T1 value columns) it was 96 % of control.

Take GDVCQDCIQMV [SEQ ID NO:19]: the “Cell Proliferation Activity (% of control), KSY-1” value is 28 % of control in the assay on KS Y-1 cells [1] (setting [4]) and 8 % of control in the assay on KS Y-1 cells [1] (setting [5]). The “Fibroblast Proliferation, % of Control” value in the assay with T1 cells (1 μg/mL) was 91.3 % of Control; with T1 cells (10 μg/mL), 91.3 % of Control; in the assay on T1 cells (50 μg/mL), 82.6 % of Control. Also, the “% Cells Migrating Through Membrane (of Control)” value is reported as 78.23 % (of Control) with KS Y-1 cells [3] (1 μg/mL), 20.98 % (of Control) in the assay with KS Y-1 cells [3] (50 μg/mL) and 40.32 % (of Control) in the assay on KS Y-1 cells [3].

With QDCIQMV [SEQ ID NO:31, QDCIQMV], the half-maximal inhibitory concentration (IC50) – broadly, the point on the concentration scale where inhibition reaches its midpoint – in the assay on KS Y-1 cells [1] was 16.6 µM. For the same molecule, the “Cell Proliferation Activity (% of control), KSY-1” value in the assay on KS Y-1 cells [1] (setting [4]) is recorded as 74 % of control. Further, the results for the “Cell Proliferation Activity (% of control), T1” value with T1 cells and in the assay on T1 cells (first of two T1 value columns) were 80 % of control and 87 % of control, respectively.

Turning to CQDCIQMV [SEQ ID NO:30], the “Cell Proliferation Activity (% of control), KSY-1” value was 77 % of control in the assay with KS Y-1 cells [1] (setting [4]) and 35 % of control in the assay on KS Y-1 cells [1] (setting [5]). For the same molecule, the “Cell Proliferation Activity (% of control), T1” value is recorded as 84 % of control in the assay with T1 cells and 92 % of control with T1 cells (first of two T1 value columns).

B1: Saposin D: sphingolipid-binding glycoprotein derived from Prosaposin; recombinant (protein, UniProt P07602 405-486, looked up)
Saposin-D: DGGFCEVCKKLVGYLDRNLEKNSTKQEILAALEKGCSFLPDPYQKQCDQFVAEYEPVLIEILVEVMDPSFVCLKIGACPSAH
modifications: Saposin-D
notes: recombinant
On to B1, for which, in the assay with KS cell lines, the “activity against KS cell lines” value is listed as “no activity”. For the same molecule, the “activity against endothelial cells” value in assay [2] is “no activity”.

B2: Prosaposin: 70 kD glycoprotein, precursor of Saposin A, B, C and D; naturally occurring full-length (protein, listed as Homo sapiens)
chain: MYALFLLASLLGAALAGPVLGLKECTRGSAVWCQNVKTASDCGAVKHCLQTVWNKPTVKSLPCDICKDVVTAAGDMLKDNATEEEILVYLEKTCDWLPKPNMSASCKEIVDSYLPVILDIIKGEMSRPGEVCSALNLCESLQKHLAELNHQKQLESNKIPELDMTEVVAPFMANIPLLLYPQDGPRSKPQPKDNGDVCQDCIQMVTDIQTAVRTNSTFVQALVEHVKEECDRLGPGMADICKNYISQYSEIAIQMMMHMQPKEICALVGFCDEVKEMPMQTLVPAKVASKNVIPALELVEPIKKHEVPAKSDVYCEVCEFLVKEVTKLIDNNKTEKEILDAFDKMCSKLPKSLSEECQEVVDTYGSSILSILLEEVSPELVCSMLHLCSGTRLPALTVHVTQPKDGGFCEVCKKLVGYLDRNLEKNSTKQEILAALEKGCSFLPDPYQKQCDQFVAEYEPVLIEILVEVMDPSFVCLKIGACPSAHKPLLGTEKCIWGPSYWCQNTETAAQCNAVEHCKRHVWN
modifications: prosaposin
notes: 70 kD glycoprotein, precursor of Saposin A, B, C and D; naturally occurring full-length
Consider B2, for which, in the assay on KS cell lines, the “activity against KS cell lines” value is on record as “no activity”. In addition, in assay [2], the “activity against endothelial cells” value is reported as “no activity”.

B3: Saposin A: sphingolipid-binding glycoprotein derived from Prosaposin; recombinant (protein, UniProt P07602 60-142, looked up)
Saposin-A: SLPCDICKDVVTAAGDMLKDNATEEEILVYLEKTCDWLPKPNMSASCKEIVDSYLPVILDIIKGEMSRPGEVCSALNLCESLQ
modifications: Saposin-A
notes: recombinant
Turning to B3, the “activity against KS cell lines” value in the assay on KS cell lines is “no activity”. Further, the “activity against endothelial cells” value in assay [2] is “no activity”.

B4: Saposin C: sphingolipid-binding glycoprotein derived from Prosaposin; recombinant (protein, UniProt P07602 311-390, looked up)
Saposin-C: SDVYCEVCEFLVKEVTKLIDNNKTEKEILDAFDKMCSKLPKSLSEECQEVVDTYGSSILSILLEEVSPELVCSMLHLCSG
modifications: Saposin-C
notes: recombinant
As to B4, the “activity against KS cell lines” value with KS cell lines is given as “no activity”. In assay [2], the “activity against endothelial cells” value was “no activity”.
